Reference: article PMC10018501 (ACS Omega, 2023)
Read-outs that look alike come from different tables or passages of the source.

Key:
[1] = molecular target: hBChE (Equus caballus, UniProt P81908); test: In vitro hBChE inhibition assay; assay type: biochemical, human
[2] = molecular target: hBACE-1 (Homo sapiens, UniProt P56817); test: biochemical
[3] = molecular target: hAChE (Homo sapiens, UniProt P22303); test: In vitro hAChE inhibition assay; assay type: biochemical
[4] = hAChE inhibitory activity (good/moderate/poor), class in words

Chain of hAChE (P22303 32-617 isoform P22303-2 limits assumed): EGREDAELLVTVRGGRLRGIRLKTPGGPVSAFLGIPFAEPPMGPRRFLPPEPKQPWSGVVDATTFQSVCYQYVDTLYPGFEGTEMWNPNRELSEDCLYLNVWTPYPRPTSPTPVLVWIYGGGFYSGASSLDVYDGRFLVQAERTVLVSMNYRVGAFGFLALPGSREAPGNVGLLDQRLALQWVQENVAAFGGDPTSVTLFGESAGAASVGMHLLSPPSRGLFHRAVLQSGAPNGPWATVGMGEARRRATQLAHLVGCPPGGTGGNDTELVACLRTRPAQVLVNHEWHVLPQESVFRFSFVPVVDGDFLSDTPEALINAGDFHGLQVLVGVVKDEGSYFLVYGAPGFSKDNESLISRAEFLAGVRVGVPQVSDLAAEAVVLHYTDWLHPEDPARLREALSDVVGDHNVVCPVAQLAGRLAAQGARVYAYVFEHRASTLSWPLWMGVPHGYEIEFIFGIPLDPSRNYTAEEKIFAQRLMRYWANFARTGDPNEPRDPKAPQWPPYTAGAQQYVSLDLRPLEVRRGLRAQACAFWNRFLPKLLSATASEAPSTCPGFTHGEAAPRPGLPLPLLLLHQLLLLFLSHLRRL
Chain of hBACE-1 (P56817 46-501): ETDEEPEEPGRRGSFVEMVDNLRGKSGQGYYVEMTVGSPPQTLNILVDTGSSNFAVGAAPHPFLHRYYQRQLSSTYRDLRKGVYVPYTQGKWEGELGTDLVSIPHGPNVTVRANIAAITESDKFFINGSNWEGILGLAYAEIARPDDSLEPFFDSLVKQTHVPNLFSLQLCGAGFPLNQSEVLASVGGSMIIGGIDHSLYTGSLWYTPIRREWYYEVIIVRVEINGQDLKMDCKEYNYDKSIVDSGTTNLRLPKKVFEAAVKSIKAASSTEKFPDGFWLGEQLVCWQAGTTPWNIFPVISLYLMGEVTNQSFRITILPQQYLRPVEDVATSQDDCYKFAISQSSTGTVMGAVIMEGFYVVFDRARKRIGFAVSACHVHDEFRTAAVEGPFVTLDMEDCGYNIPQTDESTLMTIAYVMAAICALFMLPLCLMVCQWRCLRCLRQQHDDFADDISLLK
Chain of hBChE (P81908 whole entry): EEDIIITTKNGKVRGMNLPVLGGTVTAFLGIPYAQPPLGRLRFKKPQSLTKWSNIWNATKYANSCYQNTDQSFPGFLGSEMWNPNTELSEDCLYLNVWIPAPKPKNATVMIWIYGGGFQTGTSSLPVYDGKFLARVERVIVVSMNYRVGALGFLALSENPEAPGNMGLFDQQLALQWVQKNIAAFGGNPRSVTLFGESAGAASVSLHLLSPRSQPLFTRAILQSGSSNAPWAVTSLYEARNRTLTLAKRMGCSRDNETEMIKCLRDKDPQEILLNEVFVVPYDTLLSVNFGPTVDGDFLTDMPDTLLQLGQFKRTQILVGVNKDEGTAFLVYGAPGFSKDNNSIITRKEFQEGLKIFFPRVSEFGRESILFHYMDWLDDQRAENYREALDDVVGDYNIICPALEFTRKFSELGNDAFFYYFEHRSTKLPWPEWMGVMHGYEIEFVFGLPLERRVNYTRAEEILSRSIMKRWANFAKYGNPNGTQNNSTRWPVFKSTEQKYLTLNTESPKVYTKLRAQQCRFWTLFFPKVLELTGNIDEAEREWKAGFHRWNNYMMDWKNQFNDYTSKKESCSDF

SMILES: O=[N+]([O-])c1ccccc1-c1nn(CN2CCN(Cc3ccccc3)CC2)c(=S)o1 [SD-5, 3-((4-Benzylpiperazin-1-yl)methyl)-5-(2-nitrophenyl)-1,3,4-oxadiazole-2(3H)-thione]
- IC50 [1]: > 10 µM
- IC50 [2]: 1 to 2.5 µM
- IC50 ([2]; IC50 ± SEM hBACE-1, n = 3): 1.17 ± 0.021 µM
- IC50 ([3]; IC50 ± SEM hAChE, n = 3): 1.89 ± 0.031 µM
- hAChE inhibitory activity (good/moderate/poor) ([3]; class in words): moderate to poor

SMILES: COc1ccc(-c2nn(CN3CCN(Cc4ccccc4)CC3)c(=S)o2)cc1 [SD-13, 3-((4-Benzylpiperazin-1-yl)methyl)-5-(4-methoxyphenyl)-1,3,4-oxadiazole-2(3H)-thione]
- IC50 [1]: > 10 µM
- IC50 [2]: 1 to 2.5 µM
- IC50 ([2]; IC50 ± SEM hBACE-1, n = 3): 1.358 ± 0.012 µM
- IC50 ([3]; IC50 ± SEM hAChE, n = 3): 1.53 ± 0.028 µM
- IC50 [3, 4]: 1 to 2 µM

SMILES: Oc1ccc(-c2nn(CN3CCN(Cc4ccccc4)CC3)c(=S)o2)cc1 [SD-10, 3-((4-Benzylpiperazin-1-yl)methyl)-5-(4-hydroxyphenyl)-1,3,4-oxadiazole-2(3H)-thione]
- IC50 [1]: > 10 µM
- IC50 ([2]; IC50 ± SEM hBACE-1, n = 3): > 5 µM
- IC50 ([3]; IC50 ± SEM hAChE, n = 3): 1.22 ± 0.013 µM
- IC50 [3, 4]: 1 to 2 µM

SMILES: Nc1ccc(-c2nn(CN3CCN(Cc4ccccc4)CC3)c(=S)o2)cc1 [SD-11, 5-(4-Aminophenyl)-3-((4-benzylpiperazin-1-yl)methyl)-1,3,4-oxadiazole-2(3H)-thione]
- IC50 [1]: > 10 µM
- IC50 ([2]; IC50 ± SEM hBACE-1, n = 3): > 5 µM
- IC50 ([3]; IC50 ± SEM hAChE, n = 3): 1.22 ± 0.027 µM
- IC50 [3, 4]: 1 to 2 µM

SMILES: COc1cccc(-c2nn(CN3CCN(Cc4ccccc4)CC3)c(=S)o2)c1 [SD-12, 3-((4-Benzylpiperazin-1-yl)methyl)-5-(3-methoxyphenyl)-1,3,4-oxadiazole-2(3H)-thione]
- IC50 [1]: > 10 µM
- IC50 [2]: 1 to 2.5 µM
- IC50 ([2]; IC50 ± SEM hBACE-1, n = 3): 1.21 ± 0.016 µM
- IC50 ([3]; IC50 ± SEM hAChE, n = 3): 1.94 ± 0.024 µM
- IC50 [3, 4]: 1 to 2 µM

SMILES: Oc1ccc(-c2nn(CN3CCN(Cc4ccccc4)CC3)c(=S)o2)c(O)c1 [SD-17, 3-((4-Benzylpiperazin-1-yl)methyl)-5-(2,4-dihydroxyphenyl)-1,3,4-oxadiazole-2(3H)-thione]
- IC50 [1]: > 10 µM
- IC50 [2]: 1 to 2.5 µM
- IC50 ([2]; IC50 ± SEM hBACE-1, n = 3): 2.15 ± 0.034 µM
- IC50 ([3]; IC50 ± SEM hAChE, n = 3): 1.792 ± 0.015 µM
- hAChE inhibitory activity (good/moderate/poor) ([3]; class in words): moderate to poor

SMILES: S=c1oc(-c2ccc(Cl)cc2)nn1CN1CCN(Cc2ccccc2)CC1 [SD-1, 3-((4-Benzylpiperazin-1-yl)methyl)-5-(4-chlorophenyl)-1,3,4-oxadiazole-2(3H)-thione]
- IC50 [1]: > 10 µM
- IC50 ([2]; IC50 ± SEM hBACE-1, n = 3): 0.943 ± 0.018 µM
- IC50 ([3]; IC50 ± SEM hAChE, n = 3): 1.26 ± 0.019 µM
- IC50 [3, 4]: 1 to 2 µM

SMILES: O=[N+]([O-])c1ccc(-c2nn(CN3CCN(Cc4ccccc4)CC3)c(=S)o2)c([N+](=O)[O-])c1 [SD-15, 3-((4-Benzylpiperazin-1-yl)methyl)-5-(2,4-dinitrophenyl)-1,3,4-oxadiazole-2(3H)-thione]
- IC50 [1]: > 10 µM
- IC50 [2]: 1 to 2.5 µM
- IC50 ([2]; IC50 ± SEM hBACE-1, n = 3): 1.45 ± 0.022 µM
- IC50 ([3]; IC50 ± SEM hAChE, n = 3): 1.42 ± 0.023 µM
- hAChE inhibitory activity (good/moderate/poor) ([3]; class in words): moderate to poor

SMILES: FC(F)(F)Oc1ccc(-c2nn(CN3CCN(Cc4ccccc4)CC3)c(=S)o2)cc1 [SD-3, 3-((4-Benzylpiperazin-1-yl)methyl)-5-(4-(trifluoromethoxy)phenyl)-1,3,4-oxadiazole-2(3H)-thione]
- IC50 [1]: > 10 µM
- IC50 [2]: 1 to 2.5 µM
- IC50 ([2]; IC50 ± SEM hBACE-1, n = 3): 1.11 ± 0.016 µM
- IC50 ([3]; IC50 ± SEM hAChE, n = 3): 1.335 ± 0.012 µM
- IC50 [3, 4]: 1 to 2 µM

SMILES: O=[N+]([O-])c1ccc(-c2nn(CN3CCN(Cc4ccccc4)CC3)c(=S)o2)cc1 [SD-2, 3-((4-Benzylpiperazin-1-yl)methyl)-5-(4-nitrophenyl)-1,3,4-oxadiazole-2(3H)-thione]
- IC50 [1]: > 10 µM
- IC50 ([2]; IC50 ± SEM hBACE-1, n = 3): 0.811 ± 0.023 µM
- IC50 ([3]; IC50 ± SEM hAChE, n = 3): 1.107 ± 0.008 µM
- IC50 [3, 4]: 1 to 2 µM

SMILES: S=c1oc(-c2cccc(Cl)c2)nn1CN1CCN(Cc2ccccc2)CC1 [SD-7, 3-((4-Benzylpiperazin-1-yl)methyl)-5-(3-chlorophenyl)-1,3,4-oxadiazole-2(3H)-thione]
- IC50 [1]: > 10 µM
- IC50 ([2]; IC50 ± SEM hBACE-1, n = 3): 0.885 ± 0.013 µM
- IC50 ([3]; IC50 ± SEM hAChE, n = 3): 1.42 ± 0.022 µM
- IC50 [3, 4]: < 1 µM

SMILES: S=c1oc(-c2ccc(Cl)cc2Cl)nn1CN1CCN(Cc2ccccc2)CC1 [SD-9, 3-((4-Benzylpiperazin-1-yl)methyl)-5-(2,4-dichlorophenyl)-1,3,4-oxadiazole-2(3H)-thione]
- IC50 [1]: > 10 µM
- IC50 [2]: 1 to 2.5 µM
- IC50 ([2]; IC50 ± SEM hBACE-1, n = 3): 1.41 ± 0.031 µM
- IC50 ([3]; IC50 ± SEM hAChE, n = 3): 2.11 ± 0.037 µM
- hAChE inhibitory activity (good/moderate/poor) ([3]; class in words): moderate to poor
